The values below come from US20150284385A1, “CERTAIN DIPEPTIDYL PEPTIDASE INHIBITORS” (SHANGHAI FOCHON PHARMACEUTICAL CO LTD, priority 2012, published 2015).

The structures appear in SMILES notation. Like-named read-outs stand apart in the source and are kept apart here.

For one assay, the target named is Recombinant human DPP-IV (Homo sapiens, UniProt P27487). Put plainly: DPP-IV assay in vitro (H-Ala-Pro-AFC fluorescence). It counts as biochemical. The conditions noted are these: 30 min pre-incubation, H-Ala-Pro-AFC 50 μM. Here is the method:
DPP-IV Assay Solutions of test compounds in varying concentrations (10^−5 mol/L, 10^−6 mol/L, 10^−7 mol/L, 10^−8 mol/L, 10^−9 mol/L, 10^−10 mol/L, 10^−11 mol/L, and 10^−12 mol/L) were prepared in dimethyl sulfoxide (DMSO) and then diluted into assay buffer comprising: 10 mM Tris-HCl pH 8.0, 0.2 M NaCl, and 0.1% BSA. Recombinant human DPP-IV (7.8 ng/ml final concentration) was added to the dilutions and pre-incubated for 30 mins at room temperature before the reaction was initiated with H-Ala-Pro-AFC (50 μM final concentration). The total volume of the reaction mixture was 100 μl.
Inhibition constants (IC50) were calculated by GraphPad Prism.

A further assay has as its target T1, DPP-4 (Mus musculus, UniProt P28843).
T1 construct: Blood sample was processed to obtain plasma; from tissue; host or cells: plasma of male ICR mice
The assay is described as follows: Plasma DPP-4 activity in mice after oral dosing. It counts as in vivo, ICR mice. The conditions noted are these: read-out: DPP-4 Relative activity %; for activity at 1 mg/kg: oral 1 mg/kg; for activity at 3 mg/kg: mice plasma, oral 3 mg/kg. Here is the method: Some of the exemplary compounds were tested in mice to assess inhibition of DPP-4 activity via plasma DPP-4 activity. Male ICR mice (25-30 g) were used for this study. All the mice were fasted at least 3 hours before study. Mice (n=6/group) received vehicle or at least one of the exemplary compounds by oral gavage. The dosing solutions were 0.15 mg/ml for the 3 mg/kg. Dosing volume was 20 mL/kg of body weight for all doses. The vehicle was distilled water. […] Blood sample was processed to obtain plasma (2000 g, 5 min, 4° C.) within 15 min after sampling.
Plasma was collected and tested by fluoremetry. Before the testing, 80 mM MgCl2 buffer was added into the 5 uL serum samples and pre-incubation for 5 minutes at room temperature, then […] of 0.1 mM substrate Gly-Pro-AMC and 20 μL of buffer were added into them. The fluorescence of the mixture was measured every 3 minutes after mixing (excitation at 380 nm; emission at 460 nm). After 6 times of measurements, a time-fluorescence cure was obtained. The slope of the curve would be the activity of DPP-4 in serum. The DPP-4 activity before administration was 100%. The relative activity of DPP-4 in serum was calculated using the formula below:
Relative DPP-4activity=DPP-4activity after dosing/DPP-4activity before dosing×100%.

Where [1] appears, read: Table 4 Test 3, mice plasma, 1 h after dosing.
The mark [2] stands for this setting: Table 4 Test 3, mice plasma, 2 h after dosing.
The mark [3] stands for this setting: Table 4 Test 3, mice plasma, 4 h after dosing.
Where [4] appears, read: Table 4 Test 3, mice plasma, 6 h after dosing.
Where [5] appears, read: Table 4 Test 3, mice plasma, 9 h after dosing.
[6] abbreviates: Table 4 Test 3, mice plasma, 12 h after dosing.
The mark [7] stands for this setting: Table 4 Test 3, mice plasma, 24 h after dosing.
Setting [8] is: Table 4 Test 1, mice plasma, 1 h after dosing.
The mark [9] stands for this setting: Table 4 Test 1, mice plasma, 2 h after dosing.
The mark [10] stands for this setting: Table 4 Test 1, mice plasma, 4 h after dosing.
[11] abbreviates: Table 4 Test 1, mice plasma, 6 h after dosing.
Where [12] appears, read: Table 4 Test 1, mice plasma, 9 h after dosing.
Where [13] appears, read: Table 3, mice plasma, 1 h after dosing.
[14] abbreviates: Table 3, mice plasma, 2 h after dosing.
Setting [15] is: Table 3, mice plasma, 4 h after dosing.
Where [16] appears, read: Table 3, mice plasma, 6 h after dosing.
Where [17] appears, read: Table 3, mice plasma, 9 h after dosing.
The mark [18] stands for this setting: Table 3, mice plasma, 12 h after dosing.
Setting [19] is: Table 3, mice plasma, 24 h after dosing.

T1 sequence (P28843 37-760 limits assumed): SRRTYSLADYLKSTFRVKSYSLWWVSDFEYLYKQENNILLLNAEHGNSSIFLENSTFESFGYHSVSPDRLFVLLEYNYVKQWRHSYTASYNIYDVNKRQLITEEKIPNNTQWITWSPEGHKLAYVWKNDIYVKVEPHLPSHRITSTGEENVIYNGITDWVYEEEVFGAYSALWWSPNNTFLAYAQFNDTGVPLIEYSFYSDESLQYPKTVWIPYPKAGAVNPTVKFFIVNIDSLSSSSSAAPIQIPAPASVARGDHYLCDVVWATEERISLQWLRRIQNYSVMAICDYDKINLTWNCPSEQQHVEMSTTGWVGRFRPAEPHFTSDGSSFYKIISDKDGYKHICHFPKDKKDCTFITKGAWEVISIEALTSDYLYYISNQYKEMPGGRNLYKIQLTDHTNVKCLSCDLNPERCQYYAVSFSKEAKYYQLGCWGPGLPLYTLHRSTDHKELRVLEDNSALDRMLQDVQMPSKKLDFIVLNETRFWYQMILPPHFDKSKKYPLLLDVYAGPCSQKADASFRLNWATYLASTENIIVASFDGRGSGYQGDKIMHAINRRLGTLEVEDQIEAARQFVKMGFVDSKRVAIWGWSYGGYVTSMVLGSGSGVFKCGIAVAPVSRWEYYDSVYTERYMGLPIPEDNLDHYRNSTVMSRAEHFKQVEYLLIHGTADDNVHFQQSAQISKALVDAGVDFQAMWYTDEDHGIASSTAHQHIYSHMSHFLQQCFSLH
Recombinant human DPP-IV, sequence (P27487 whole entry): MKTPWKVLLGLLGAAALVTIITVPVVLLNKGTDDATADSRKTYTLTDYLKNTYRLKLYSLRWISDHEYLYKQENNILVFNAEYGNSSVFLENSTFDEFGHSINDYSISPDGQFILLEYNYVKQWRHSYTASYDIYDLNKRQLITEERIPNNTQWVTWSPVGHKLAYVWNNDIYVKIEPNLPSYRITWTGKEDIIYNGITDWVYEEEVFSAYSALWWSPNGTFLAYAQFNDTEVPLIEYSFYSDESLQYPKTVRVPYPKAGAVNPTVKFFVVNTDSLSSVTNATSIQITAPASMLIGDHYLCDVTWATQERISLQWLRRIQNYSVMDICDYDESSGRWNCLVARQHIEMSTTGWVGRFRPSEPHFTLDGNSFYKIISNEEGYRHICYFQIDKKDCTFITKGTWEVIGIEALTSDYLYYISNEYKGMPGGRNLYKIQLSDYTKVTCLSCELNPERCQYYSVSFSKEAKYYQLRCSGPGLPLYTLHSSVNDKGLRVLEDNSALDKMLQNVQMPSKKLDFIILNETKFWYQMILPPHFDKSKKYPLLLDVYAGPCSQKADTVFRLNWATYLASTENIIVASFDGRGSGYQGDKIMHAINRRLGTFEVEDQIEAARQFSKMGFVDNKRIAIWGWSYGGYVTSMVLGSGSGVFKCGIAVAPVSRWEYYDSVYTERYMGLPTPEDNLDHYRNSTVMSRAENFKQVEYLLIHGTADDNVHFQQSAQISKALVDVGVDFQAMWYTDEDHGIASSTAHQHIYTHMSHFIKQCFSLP

For the compound `N[C@H]1Cc2c(nc3cc(-c4nnn[nH]4)ccn23)C[C@@H]1c1cc(F)c(F)cc1F` [Example 10, (7R,8S)-3-(1H-Tetrazol-5-yl)-7-(2,4,5-trifluorophenyl)-6,7,8,9-tetrahydrobenzo[4,5]imidazo[1,2-a]pyridin-8-amine], the IC50 on Recombinant human DPP-IV came out at 0.6 nM.

`N[C@H]1Cc2c(nc3cc(-c4nnco4)ccn23)C[C@@H]1c1cc(F)c(F)cc1F` [Example 1, (7R,8S)-3-(1,3,4-Oxadiazol-2-yl)-7-(2,4,5-trifluorophenyl)-6,7,8,9-tetrahydrobenzo[4,5]imidazo[1,2-a]pyridine-8-amine]: the IC50 at Recombinant human DPP-IV was determined as 0.8 nM. For the same compound, the activity at 1 mg/kg at DPP-4 (setting [1]) was found to be 11.9 ± 1.2%; at DPP-4 (setting [2]) it was 7.4 ± 1%; on DPP-4 (setting [3]) it was 8.6 ± 0.8%; on DPP-4 (setting [4]), 8.4 ± 1.3%; on DPP-4 (setting [5]), 9 ± 1.2%; on DPP-4 (setting [6]) it was 8.8 ± 0.9%. Also, the activity at 1 mg/kg at DPP-4 (setting [7]) stood at 14.4 ± 1.8%. In addition, the activity at 3 mg/kg at DPP-4 (1 h after dosing) amounted to 38.7 ± 4.2%; at DPP-4 (2 h after dosing), 34.9 ± 3%; at DPP-4 (3 h after dosing), 31.2 ± 2.3%; at DPP-4 (5 h after dosing), 39.2 ± 3.3%.

As for `Cc1noc(-c2ccn3c4c(nc3c2)C[C@H](c2cc(F)c(F)cc2F)[C@@H](N)C4)n1` [Example 6, (7R,8S)-3-(3-Methyl-1,2,4-oxadiazol-5-yl)-7-(2,4,5-trifluorophenyl)-6,7,8,9-tetrahydrobenzo[4,5]imidazo[1,2-a]pyridin-8-amine], the IC50 at Recombinant human DPP-IV is 1.9 nM. Further, the activity at 1 mg/kg is 16.9 ± 1.4% at DPP-4 (setting [8]); 15.9 ± 1.9% at DPP-4 (setting [9]); 15.7 ± 1% at DPP-4 (setting [10]); 16 ± 1.2% at DPP-4 (setting [11]); 19.5 ± 1.8% at DPP-4 (setting [12]).

As for `N[C@H]1Cc2c(nc3cc(-c4ncno4)ccn23)C[C@@H]1c1cc(F)c(F)cc1F` [Example 5, (7R,8S)-3-(1,2,4-Oxadiazol-5-yl)-7-(2,4,5-trifluorophenyl)-6,7,8,9-tetrahydrobenzo[4,5]imidazo[1,2-a]pyridine-8-amine], the IC50 at Recombinant human DPP-IV was 1 nM.

With `N[C@H]1Cc2c(nc3cc(-c4nc[nH]n4)ccn23)C[C@@H]1c1cc(F)c(F)cc1F` [Example 7, (7R,8S)-3-(1H-1,2,4-Triazol-3-yl)-7-(2,4,5-trifluorophenyl)-6,7,8,9-tetrahydrobenzo[4,5]imidazo[1,2-a]pyridine-8-amine], the IC50 on Recombinant human DPP-IV was 0.9 nM.

Consider `Cn1ncnc1-c1ccn2c3c(nc2c1)C[C@H](c1cc(F)c(F)cc1F)[C@@H](N)C3` [Example 9, (7R,8S)-3-(1-Methyl-1H-1,2,4-triazol-5-yl)-7-(2,4,5-trifluorophenyl)-6,7,8,9-tetrahydrobenzo[4,5]imidazo[1,2-a]pyridine-8-amine], for which the IC50 on Recombinant human DPP-IV was 2 nM.

On to `Cn1nc(-c2ccn3c4c(nc3c2)C[C@H](c2cc(F)c(F)cc2F)[C@@H](N)C4)oc1=O` [Example 13, 5-((7R,8S)-8-Amino-7-(2,4,5-trifluorophenyl)-6,7,8,9-tetrahydrobenzo[4,5]imidazo[1,2-a]pyridin-3-yl)-3-methyl-1,3,4-oxadiazol-2(3H)-one], for which the activity at 1 mg/kg is 8.5 ± 2.2% at DPP-4 (setting [13]); 5 ± 1.7% on DPP-4 (setting [14]); 7 ± 2.7% at DPP-4 (setting [15]); 4.4 ± 2.3% on DPP-4 (setting [16]); 6.1 ± 1.7% at DPP-4 (setting [17]); 8.5 ± 1.3% at DPP-4 (setting [18]). In addition, the activity at 1 mg/kg is 20.2 ± 0.6% on DPP-4 (setting [19]); 8.5 ± 2.2% on DPP-4 (setting [1]); 5 ± 1.7% at DPP-4 (setting [2]); 7 ± 2.7% on DPP-4 (setting [3]); 4.4 ± 2.3% at DPP-4 (setting [4]); 6.1 ± 1.7% on DPP-4 (setting [5]). Moreover, the figures for the activity at 1 mg/kg at DPP-4 (setting [6]) and at DPP-4 (setting [7]) were 8.5 ± 1.3% and 20.2 ± 0.6%, respectively.

`NC(=O)c1ccn2c3c(nc2c1)C[C@H](c1cc(F)c(F)cc1F)[C@@H](N)C3` [Refference 1, (7R,8S)-8-amino-7-(2,4,5-trifluorophenyl)-6,7,8,9-tetrahydrobenzo[4,5]imidazo[1,2-a]pyridine-3-carboxamide, reference compound]: the activity at 1 mg/kg at DPP-4 (setting [8]) amounted to 20.5 ± 3%; on DPP-4 (setting [9]), 18.1 ± 2.2%; on DPP-4 (setting [10]), 19.9 ± 2%; at DPP-4 (setting [11]) it was 25.3 ± 2%; on DPP-4 (setting [12]), 33.3 ± 1.5%; on DPP-4 (Table 4 Test 1, mice plasma, 12 h after dosing), 49.5 ± 2.8%. In addition, the activity at 1 mg/kg at DPP-4 (Table 4 Test 1, mice plasma, 24 h after dosing) was 90.7 ± 3.2%; at DPP-4 (Table 4 Test 2, mice plasma, 1 h after dosing) it was 15.5 ± 1.1%; at DPP-4 (Table 4 Test 2, mice plasma, 2 h after dosing), 16.5 ± 2%; at DPP-4 (Table 4 Test 2, mice plasma, 4 h after dosing), 14.9 ± 2.9%; at DPP-4 (Table 4 Test 2, mice plasma, 6 h after dosing), 23.3 ± 3.8%; at DPP-4 (Table 4 Test 2, mice plasma, 9 h after dosing) it was 34.5 ± 2.7%. Also, the activity at 1 mg/kg worked out at 91.1 ± 4.3% on DPP-4 (Table 4 Test 2, mice plasma, 24 h after dosing); 17.5 ± 1.4% at DPP-4 (setting [1]); 17 ± 1.7% on DPP-4 (setting [2]); 22 ± 2.1% on DPP-4 (setting [3]); 33.2 ± 2.7% on DPP-4 (setting [4]); 42.5 ± 2.2% on DPP-4 (setting [5]). Besides, the activity at 1 mg/kg on DPP-4 (setting [6]) is 58 ± 2.6%; at DPP-4 (setting [7]), 81.9 ± 7.4%.

`Cc1n[nH]c(-c2ccn3c4c(nc3c2)C[C@H](c2cc(F)c(F)cc2F)[C@@H](N)C4)n1` [Example 8, (7R,8S)-3-(3-methyl-1H-1,2,4-Triazol-5-yl)-7-(2,4,5-trifluorophenyl)-6,7,8,9-tetrahydrobenzo[4,5]imidazo[1,2-a]pyridine-8-amine]: the IC50 at Recombinant human DPP-IV worked out at 1.7 nM.

Consider `N[C@H]1Cc2c(nc3cc(-c4n[nH]c(=O)o4)ccn23)C[C@@H]1c1cc(F)c(F)cc1F` [Example 12, 5-((7R,8S)-8-Amino-7-(2,4,5-trifluorophenyl)-6,7,8,9-tetrahydrobenzo[4,5]imidazo[1,2-a]pyridin-3-yl)-1,3,4-oxadiazol-2(3H)-one], for which the activity at 1 mg/kg on DPP-4 (setting [13]) amounted to 7.4 ± 1.2%; on DPP-4 (setting [14]), 7 ± 1.1%; at DPP-4 (setting [15]), 6.4 ± 1.9%; on DPP-4 (setting [16]), 10.5 ± 1.7%; at DPP-4 (setting [17]) it was 10.1 ± 1.2%; at DPP-4 (setting [18]), 15 ± 1.6%. Besides, the activity at 1 mg/kg on DPP-4 (setting [19]) came out at 38.3 ± 5.6%; on DPP-4 (setting [1]), 7.4 ± 1.2%; on DPP-4 (setting [2]) it was 7 ± 1.1%; at DPP-4 (setting [3]), 6.4 ± 1.9%; at DPP-4 (setting [4]), 10.5 ± 1.7%; on DPP-4 (setting [5]), 10.1 ± 1.2%. Also, the activity at 1 mg/kg came to 15 ± 1.6% on DPP-4 (setting [6]) and 38.3 ± 5.6% at DPP-4 (setting [7]).
